Reference: patent US20170190671A1, “BIS(ARYL)CATECHOL DERIVATIVES AS HERBICIDES” (E I DU PONT DE NEMOURS AND COMPANY, priority 2014, published 2017)

Legend:
Experiment in all cases: Test C preemergence
Assay type in all cases: in vivo
[1] = system: ragweed (common ragweed, Ambrosia elatior); details: Ambrosia artemisiifolia, pre-emergence, 336 h, preemergence, scale 0 to 100, read-out: Plant response rating, Ragweed; for pest or weed control at 31 g/ha: 31 g ai/ha; for pest or weed control at 62 g/ha: 62 g ai/ha; for pest or weed control at 125 g/ha: 125 g ai/ha; for pest or weed control at 250 g/ha: 250 g ai/ha
Procedure, shortened: (§1)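 Seeds sown in a loam soil and sand blend were treated preemergence; plants in peat-moss/vermiculite medium were sprayed at the 1- to 4-leaf stage (2-18 cm). Chemicals were in a non-phytotoxic surfactant-containing solvent. After 13 to 15 days in a greenhouse, injury was visually rated against controls on a 0-100 scale.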

[2] = system: waterhemp (common waterhemp, Amaranthus rudis); details: Amaranthus tuberculatus, pre-emergence, preemergence, scale 0 to 100, read-out: Plant response rating, Waterhemp; for pest or weed control at 31 g/ha: 31 g ai/ha; for pest or weed control at 62 g/ha: 62 g ai/ha; for pest or weed control at 125 g/ha: 125 g ai/ha; for pest or weed control at 250 g/ha: 250 g ai/ha
Procedure, shortened: as §1

[3] = system: blackgrass (Alopecurus myosuroides); details: Alopecurus myosuroides, pre-emergence, 336 h, preemergence, scale 0 to 100, read-out: Plant response rating, Blackgrass; for pest or weed control at 31 g/ha: 31 g ai/ha; for pest or weed control at 62 g/ha: 62 g ai/ha; for pest or weed control at 125 g/ha: 125 g ai/ha
Procedure, shortened: as §1

[4] = system: lambsquarters (Chenopodium album); details: Chenopodium album, pre-emergence, 336 h, preemergence, scale 0 to 100, read-out: Plant response rating, Lambsquarters; for pest or weed control at 31 g/ha: 31 g ai/ha; for pest or weed control at 62 g/ha: 62 g ai/ha; for pest or weed control at 125 g/ha: 125 g ai/ha
Procedure, shortened: as §1

[5] = system: barnyardgrass (Echinochloa crus-galli); details: Echinochloa crus-galli, pre-emergence, preemergence, scale 0 to 100, read-out: Plant response rating, Barnyardgrass; for pest or weed control at 31 g/ha: 31 g ai/ha; for pest or weed control at 62 g/ha: 62 g ai/ha; for pest or weed control at 125 g/ha: 125 g ai/ha; for pest or weed control at 250 g/ha: 250 g ai/ha
Procedure, shortened: as §1

[6] = system: winter wheat (Triticum aestivum); details: Triticum aestivum, pre-emergence, 336 h, preemergence, scale 0 to 100, read-out: Plant response rating, Wheat; for plant injury at 31 g/ha: 31 g ai/ha; for plant injury at 62 g/ha: 62 g ai/ha; for plant injury at 125 g/ha: 125 g ai/ha; for plant injury at 250 g/ha: 250 g ai/ha
Procedure, shortened: as §1

[7] = system: Italian ryegrass (Lolium multiflorum); details: Lolium multiflorum, pre-emergence, 336 h, preemergence, scale 0 to 100, read-out: Plant response rating, Ryegrass, Italian; for pest or weed control at 31 g/ha: 31 g ai/ha; for pest or weed control at 62 g/ha: 62 g ai/ha; for pest or weed control at 125 g/ha: 125 g ai/ha; for pest or weed control at 250 g/ha: 250 g ai/ha
Procedure, shortened: as §1

[8] = system: giant foxtail (Setaria faberii); details: Setaria faberi, pre-emergence, 336 h, preemergence, scale 0 to 100, read-out: Plant response rating, Foxtail, Giant; for pest or weed control at 31 g/ha: 31 g ai/ha; for pest or weed control at 62 g/ha: 62 g ai/ha; for pest or weed control at 125 g/ha: 125 g ai/ha
Procedure, shortened: as §1

[9] = system: large (Lg) crabgrass (Digitaria sanguinalis); details: Digitaria sanguinalis, pre-emergence, 336 h, preemergence, scale 0 to 100, read-out: Plant response rating, Crabgrass, Large; for pest or weed control at 31 g/ha: 31 g ai/ha; for pest or weed control at 62 g/ha: 62 g ai/ha; for pest or weed control at 125 g/ha: 125 g ai/ha
Procedure, shortened: as §1

[10] = system: corn (Zea mays); details: Zea mays, pre-emergence, 336 h, preemergence, scale 0 to 100; for Corn plant response rating (crop injury, 0 = no effect, 100 = complete kill) at 31 g/ha: 31 g ai/ha; for Corn plant response rating (crop injury, 0 = no effect, 100 = complete kill) at 62 g/ha: 62 g ai/ha; for Corn plant response rating (crop injury, 0 = no effect, 100 = complete kill) at 125 g/ha: 125 g ai/ha
Procedure, shortened: as §1

[11] = system: soybean (Glycine max); details: Glycine max, pre-emergence, preemergence, scale 0 to 100, read-out: Plant response rating, Soybean; for plant injury at 31 g/ha: 31 g ai/ha; for plant injury at 62 g/ha: 62 g ai/ha; for plant injury at 125 g/ha: 125 g ai/ha; for plant injury at 250 g/ha: 250 g ai/ha
Procedure, shortened: as §1

[12] = system: velvetleaf (Abutilon theophrasti); details: Abutilon theophrasti, pre-emergence, preemergence, scale 0 to 100, read-out: Plant response rating, Velvetleaf; for pest or weed control at 31 g/ha: 31 g ai/ha; for pest or weed control at 62 g/ha: 62 g ai/ha; for pest or weed control at 125 g/ha: 125 g ai/ha; for pest or weed control at 250 g/ha: 250 g ai/ha
Procedure, shortened: as §1

[13] = system: oilseed rape (Brassica napus); details: Brassica napus, pre-emergence, preemergence, scale 0 to 100, read-out: Plant response rating, Oilseed Rape; for plant injury at 31 g/ha: 31 g ai/ha; for plant injury at 62 g/ha: 62 g ai/ha; for plant injury at 125 g/ha: 125 g ai/ha; for plant injury at 250 g/ha: 250 g ai/ha
Procedure, shortened: as §1

[14] = system: yellow nutsedge (Cyperus esculentus); details: Cyperus, pre-emergence, 336 h, preemergence, scale 0 to 100, read-out: Plant response rating, Nutsedge, Yellow; for pest or weed control at 31 g/ha: 31 g ai/ha; for pest or weed control at 62 g/ha: 62 g ai/ha; for pest or weed control at 125 g/ha: 125 g ai/ha
Procedure, shortened: as §1

[15] = system: galium (catchweed bedstraw, Galium aparine); details: Galium, pre-emergence, 336 h, preemergence, scale 0 to 100, read-out: Plant response rating, Galium; for pest or weed control at 31 g/ha: 31 g ai/ha; for pest or weed control at 62 g/ha: 62 g ai/ha; for pest or weed control at 125 g/ha: 125 g ai/ha
Procedure, shortened: as §1

Q: Which results are given for `Fc1cnc(Oc2c(Br)cccc2Oc2ncc(Cl)cn2)nc1` [Compound 22]?
A: pest or weed control at 31 g/ha [1]: 55%; pest or weed control at 62 g/ha [1]: 85%; pest or weed control at 125 g/ha [1]: 90%; pest or weed control at 250 g/ha [1]: 95%; pest or weed control at 31 g/ha [2]: 100%; pest or weed control at 62 g/ha [2]: 100%; pest or weed control at 125 g/ha [2]: 100%; pest or weed control at 250 g/ha [2]: 100%; pest or weed control at 31 g/ha [3]: 10%; pest or weed control at 62 g/ha [3]: 60%; pest or weed control at 125 g/ha [3]: 90%; pest or weed control at 31 g/ha [4]: 75%; pest or weed control at 62 g/ha [4]: 100%; pest or weed control at 125 g/ha [4]: 100%; pest or weed control at 31 g/ha [5]: 60%; pest or weed control at 62 g/ha [5]: 95%; pest or weed control at 125 g/ha [5]: 100%; pest or weed control at 250 g/ha [5]: 100%; plant injury at 31 g/ha [6]: 0%; plant injury at 62 g/ha [6]: 15%; plant injury at 125 g/ha [6]: 20%; plant injury at 250 g/ha [6]: 90%; pest or weed control at 31 g/ha [7]: 5%; pest or weed control at 62 g/ha [7]: 30%; pest or weed control at 125 g/ha [7]: 80%; pest or weed control at 250 g/ha [7]: 90%; pest or weed control at 31 g/ha [8]: 100%; pest or weed control at 62 g/ha [8]: 100%; pest or weed control at 125 g/ha [8]: 100%; pest or weed control at 31 g/ha [9]: 100%; pest or weed control at 62 g/ha [9]: 100%; pest or weed control at 125 g/ha [9]: 100%; Corn plant response rating (crop injury, 0 = no effect, 100 = complete kill) at 31 g/ha [10]: 10%; Corn plant response rating (crop injury, 0 = no effect, 100 = complete kill) at 62 g/ha [10]: 40%; Corn plant response rating (crop injury, 0 = no effect, 100 = complete kill) at 125 g/ha [10]: 80%; plant injury at 31 g/ha [11]: 60%; plant injury at 62 g/ha [11]: 70%; plant injury at 125 g/ha [11]: 90%; plant injury at 250 g/ha [11]: 95%; pest or weed control at 31 g/ha [12]: 70%; pest or weed control at 62 g/ha [12]: 98%; pest or weed control at 125 g/ha [12]: 100%; pest or weed control at 250 g/ha [12]: 100%; plant injury at 31 g/ha [13]: 85%; plant injury at 62 g/ha [13]: 98%; plant injury at 125 g/ha [13]: 100%; plant injury at 250 g/ha [13]: 100%; pest or weed control at 31 g/ha [14]: 0%; pest or weed control at 62 g/ha [14]: 20%; pest or weed control at 125 g/ha [14]: 60%; pest or weed control at 31 g/ha [15]: 98%; pest or weed control at 62 g/ha [15]: 100%; pest or weed control at 125 g/ha [15]: 100%

Q: What does the source list for `Fc1cnc(Oc2c(F)cccc2Oc2ncc(Cl)cn2)nc1` [Compound 23]?
A: pest or weed control at 31 g/ha [1]: 85%; pest or weed control at 62 g/ha [1]: 100%; pest or weed control at 125 g/ha [1]: 100%; pest or weed control at 250 g/ha [1]: 100%; pest or weed control at 31 g/ha [2]: 100%; pest or weed control at 62 g/ha [2]: 100%; pest or weed control at 125 g/ha [2]: 100%; pest or weed control at 250 g/ha [2]: 100%; pest or weed control at 31 g/ha [3]: 65%; pest or weed control at 62 g/ha [3]: 85%; pest or weed control at 125 g/ha [3]: 95%; pest or weed control at 31 g/ha [4]: 100%; pest or weed control at 62 g/ha [4]: 100%; pest or weed control at 125 g/ha [4]: 100%; pest or weed control at 31 g/ha [5]: 75%; pest or weed control at 62 g/ha [5]: 100%; pest or weed control at 125 g/ha [5]: 100%; pest or weed control at 250 g/ha [5]: 100%; plant injury at 31 g/ha [6]: 5%; plant injury at 62 g/ha [6]: 40%; plant injury at 125 g/ha [6]: 50%; plant injury at 250 g/ha [6]: 90%; pest or weed control at 31 g/ha [7]: 5%; pest or weed control at 62 g/ha [7]: 75%; pest or weed control at 125 g/ha [7]: 85%; pest or weed control at 250 g/ha [7]: 90%; pest or weed control at 31 g/ha [8]: 95%; pest or weed control at 62 g/ha [8]: 98%; pest or weed control at 125 g/ha [8]: 100%; pest or weed control at 31 g/ha [9]: 100%; pest or weed control at 62 g/ha [9]: 100%; pest or weed control at 125 g/ha [9]: 100%; Corn plant response rating (crop injury, 0 = no effect, 100 = complete kill) at 31 g/ha [10]: 5%; Corn plant response rating (crop injury, 0 = no effect, 100 = complete kill) at 62 g/ha [10]: 35%; Corn plant response rating (crop injury, 0 = no effect, 100 = complete kill) at 125 g/ha [10]: 70%; plant injury at 31 g/ha [11]: 60%; plant injury at 62 g/ha [11]: 80%; plant injury at 125 g/ha [11]: 90%; plant injury at 250 g/ha [11]: 95%; pest or weed control at 31 g/ha [12]: 100%; pest or weed control at 62 g/ha [12]: 100%; pest or weed control at 125 g/ha [12]: 100%; pest or weed control at 250 g/ha [12]: 100%; plant injury at 31 g/ha [13]: 100%; plant injury at 62 g/ha [13]: 100%; plant injury at 125 g/ha [13]: 100%; plant injury at 250 g/ha [13]: 100%; pest or weed control at 31 g/ha [14]: 0%; pest or weed control at 62 g/ha [14]: 10%; pest or weed control at 125 g/ha [14]: 60%; pest or weed control at 31 g/ha [15]: 100%; pest or weed control at 62 g/ha [15]: 100%; pest or weed control at 125 g/ha [15]: 100%
